Source: patent US20240239794A1, “PKC-Theta Modulators” (Exscientia AI Limited, priority 2021, published 2024)
Structures can show the parent of a compound that is named as a salt. Where two headings read alike, the source gives them in different places.

Assays:
[1] = tested on: IL-2 secretion by human effector memory T cells (TEM); experiment: Effector memory T cells IL-2 release assay; format: cell-based; settings: T-cell, 24 h
Summary of the method: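 Human CD4+ effector memory T cells (negatively sorted from donor PBMC), 5,000 per well, stimulated with CD3/CD28 beads and 10 semi-log compound doses for 24 h at 37° C, 0.1% DMSO. Supernatant IL-2 measured by HTRF; IC50 from 4-parameter logistic fit; viability checked by flow cytometry.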

[2] = biological target: Recombinant human PKC-theta (His-tagged 362-706) (Homo sapiens (Human), UniProt Q04759); experiment: PKC-theta inhibition assay (HTRF KinEASE kit); format: biochemical; settings: ATP 6.5 μM
Chain of Recombinant human PKC-theta (His-tagged 362-706) (Q04759 362-706): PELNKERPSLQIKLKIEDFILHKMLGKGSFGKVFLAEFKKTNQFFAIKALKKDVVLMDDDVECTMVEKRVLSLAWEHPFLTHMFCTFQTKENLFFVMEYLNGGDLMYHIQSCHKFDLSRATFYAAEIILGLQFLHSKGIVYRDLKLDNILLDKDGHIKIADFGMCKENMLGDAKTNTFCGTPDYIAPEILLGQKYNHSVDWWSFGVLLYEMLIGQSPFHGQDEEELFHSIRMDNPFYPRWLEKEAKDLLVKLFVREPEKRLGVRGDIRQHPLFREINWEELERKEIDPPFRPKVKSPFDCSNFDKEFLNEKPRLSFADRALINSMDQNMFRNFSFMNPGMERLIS
Summary of the method: (§1)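 HTRF KinEASE kinase assay, buffer supplemented with 10 mM MgCl2, 1 mM DTT, 0.1% Tween 20; enzyme at 10 ng/ml preincubated 30 min on ice with compound. PKC-theta: 525 nM STK substrate, 6.5 μM ATP, 30 min at 25° C; PKC-delta: 243 nM substrate, 5.7 μM ATP, 20 min. IC50 from 4-parameter fit of 10-dose series.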

[3] = biological target: Recombinant human PKC-delta (His-tagged 345-676) (Homo sapiens (Human), UniProt Q05655); experiment: PKC-delta inhibition assay (HTRF KinEASE kit), PKC-theta/PKC-delta selectivity; format: biochemical; settings: ratio; for PKC-theta/PKC-delta selectivity: PKC-theta over PKC-delta, HTRF assays; for PKC-theta/PKC-delta selectivity (binned): binned A to G
Chain of Recombinant human PKC-delta (His-tagged 345-676) (Q05655 345-676): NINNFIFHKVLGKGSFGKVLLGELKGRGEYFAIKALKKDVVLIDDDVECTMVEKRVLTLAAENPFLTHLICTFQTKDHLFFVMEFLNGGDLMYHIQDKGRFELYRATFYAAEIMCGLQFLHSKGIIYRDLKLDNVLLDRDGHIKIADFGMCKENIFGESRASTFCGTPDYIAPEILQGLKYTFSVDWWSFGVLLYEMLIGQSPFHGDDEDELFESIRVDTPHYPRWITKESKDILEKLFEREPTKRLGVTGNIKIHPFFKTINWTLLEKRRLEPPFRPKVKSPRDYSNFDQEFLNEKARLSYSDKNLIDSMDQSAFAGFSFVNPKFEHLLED
Summary of the method: as §1

[4] = human CD4+ TEM cells, CD3/CD28 bead stimulation, binned A to G, read-out: PKC-theta IL2 pIC50 (binned) (converted)
[5] = human CD4+ TEM cells, CD3/CD28 bead stimulation, read-out: PKC-theta IL2 pIC50 (converted)
[6] = binned A to H, read-out: PKC-theta HTRF pIC50 (binned) (converted)
[7] = read-out: PKC-theta HTRF pIC50 (converted)

SMILES	IC50 [1, 4] [nM]	IC50 [1, 5] [nM]	IC50 [2, 6] [nM]	IC50 [2, 7] [nM]	PKC-theta/PKC-delta selectivity [3]	PKC-theta/PKC-delta selectivity (binned) [3]	PKC-theta HTRF pIC50 [2]	IC50 ([1]; Homo sapiens, read-out: PKC-theta IL2 pIC50 (binned) (converted)) [nM]	IC50 ([1]; Homo sapiens, read-out: PKC-theta IL2 pIC50 (converted)) [nM]
CC[C@]1(C)C(=O)Nc2nccc(-c3nn([C@@H]4CCNC[C@@H]4F)c4ccccc34)c21 (single isomer, unassigned) [Example 106]	10 to 31.6	12.6	≤ 1	0.794	15	D (D means a ratio of between 10 and 20)			
CC1(Cn2nc(-c3ccnc4c3C(C)(C)C(=O)N4)c3ccccc32)COCCN1 (stereo not drawn) [Example 54, 3,3-dimethyl-4-[1-[(3-methylmorpholin-3-yl)methyl]indazol-3-yl]-1H-pyrrolo[2,3-b]pyridin-2-one]	31.6 to 100	79.4	1 to 3.16		22	C (C means a ratio of between 20 and 30)	8.6		
CO[C@@]1(C)C(=O)Nc2nccc(-c3nn(CC4(F)CCNCC4)c4cc(F)ccc34)c21 (single isomer, unassigned) [Example 79]	31.6 to 100	50.1	1 to 3.16	1.26	15	D (D means a ratio of between 10 and 20)			
C[C@@]1(O)C(=O)Nc2nccc(-c3nn(C4(CC#N)COC4)c4ccccc34)c21 (single isomer, unassigned) [Example 48]	316 to 1000	794	100 to 316	316	33	B (B means a ratio of between 30 and 50)			
CC1(C)C(=O)Nc2nccc(-c3cn(C4CCNCC4)c4ccccc34)c21 [Example 7, 3,3-dimethyl-4-[1-(4-piperidyl)indol-3-yl]-1H-pyrrolo[2,3-b]pyridin-2-one Dihydrochloride]			31.6 to 100		6	E (E means a ratio of between 5 and 10)	7.4	316 to 1000	501
CN[C@@]1(C)C(=O)Nc2nccc(-c3nn(C4(CC#N)CCC4)c4ccccc34)c21 (single isomer, unassigned) [Example 94]	100 to 316	126	3.16 to 10	3.98	23	C (C means a ratio of between 20 and 30)			
CC1(C)C(=O)Nc2nccc(-c3nn([C@H]4CCNC4)c4cc(Cl)ccc34)c21 [Example 71]	100 to 316	126	3.16 to 10		22	C (C means a ratio of between 20 and 30)	8.1		
CC[C@]1(C)C(=O)Nc2nccc(-c3nn([C@@H]4CCNC[C@@H]4F)c4ccc(F)cc34)c21 (single isomer, unassigned) [Example 98]	> 1000	1000	10 to 31.6	31.6	57	A (A means a ratio of between 50 and 120)			
CC1(C)C(=O)Nc2nccc(-c3ccn([C@H]4CC[C@H](N)CC4)n3)c21 [Example 14]	31.6 to 100	50.1	3.16 to 10		3	F (F means a ratio of between 1 and 5)	8.5		
COC1(C)C(=O)Nc2nccc(-c3nn(CC4(F)CCCNC4)c4ccccc34)c21 (stereo not drawn) [Example 67]	316 to 1000	398	31.6 to 100		9	E (E means a ratio of between 5 and 10)	7.5		
CO[C@@]1(C)C(=O)Nc2nccc(-c3nn(CC4(F)CCNCC4)c4ccccc34)c21 (single isomer, unassigned) [Example 78]	31.6 to 100	50.1	≤ 1	1	10	D (D means a ratio of between 10 and 20)			
CC1(C)C(=O)Nc2nccc(-c3nn(C4(CF)CCNC4)c4ccccc34)c21 (stereo not drawn) [Example 77]	10 to 31.6	12.6	≤ 1		11	D (D means a ratio of between 10 and 20)	9.0		
CC[C@@]1(C)C(=O)Nc2nccc(-c3nn([C@H]4CCNC[C@H]4F)c4ccccc34)c21 (single isomer, unassigned) [Example 107]	316 to 1000	631	10 to 31.6	20	23	C (C means a ratio of between 20 and 30)			
CC[C@@]1(C)C(=O)Nc2nccc(-c3nn([C@H]4CCNC4)c4ccccc34)c21 (single isomer, unassigned) [Example 66]	31.6 to 100	100	3.16 to 10	3.98	21	C (C means a ratio of between 20 and 30)			
CC[C@]1(O)C(=O)Nc2nccc(-c3nn(C4(CC#N)CCC4)c4ccccc34)c21 (single isomer, unassigned) [Example 69]	> 1000	1260	31.6 to 100	100	9	E (E means a ratio of between 5 and 10)			
CC1(O)C(=O)Nc2nccc(-c3cn([C@H]4CCNC4)c4ccccc34)c21 (stereo partly drawn) [Example 18]	316 to 1000	316	10 to 31.6		11	D (D means a ratio of between 10 and 20)	7.9		
CC1(C)C(=O)Nc2nccc(-c3nn(CC4CCNCC4)c4ccccc34)c21 [Example 30]	31.6 to 100	50.1	1 to 3.16		14	D (D means a ratio of between 10 and 20)	8.9		
O=c1[nH]c2nccc(-c3cnn(C4CCNCC4)c3)c2[nH]1 [Example 1]	> 1000	3160	316 to 1000		1	G (G means a ratio of between 0 and 1)	6.1		
CN[C@]1(C)C(=O)Nc2nccc(-c3nn(C4(CC#N)CCC4)c4ccccc34)c21 (single isomer, unassigned) [Example 95]	1 to 3.16	1.58	≤ 1	0.126	25	C (C means a ratio of between 20 and 30)			
CC1(C)C(=O)Nc2nccc(-c3cn(C4(CC#N)CCC4)c4ccccc34)c21 [Example 21, 2-[1-[3-(3,3-dimethyl-2-oxo-1H-pyrrolo[2,3-b]pyridin-4-yl)indol-1-yl]cyclobutyl]acetonitrile]	> 1000	1000	31.6 to 100		9	E (E means a ratio of between 5 and 10)	7.3		
